Test results from the supplement of paper PMC10307832.

What was measured:
Assay in all cases: relative viability (nuclei count vs DMSO), 5 days (fraction); higher = more cells survive
[1] = compound: C1CC(C1)(C(=O)O)C(=O)O.[NH2-].[NH2-].[Pt+2] [Carboplatin] + Nc1nc2[nH]cc(CCc3ccc(C(=O)N[C@@H](CCC(=O)O)C(=O)O)cc3)c2c(=O)[nH]1 [Pemetrexed] (partner 0.2 µM)
Summary of the method: (§1)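 Dosing by pin tool came one day after lung cancer cell lines were seeded in 1536-well plates, using either one drug or a fixed anchor-drug dose plus five library-drug doses (not always all listed) in √10 steps. After 5 days, nuclei were counted on 4× images. Relative viability is treated-well nuclei count divided by vehicle-well nuclei count, and values are medians of duplicate plates.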

[2] = compound: CC[C@H](C)N1C=C(C2=C(C=C(C=C21)C3=CN=C(C=C3)N4CCNCC4)C(=O)NCC5=C(C=C(NC5=O)C)C)C [GSK126] + NC(=O)Nc1cc(-c2cccc(F)c2)sc1C(=O)N[C@H]1CCCNC1 [AZD7762] (partner 0.2 µM)
Summary of the method: as §1

[3] = compound: NS(=O)(=O)OC[C@@H]1C[C@@H](n2ccc3c(N[C@H]4CCc5ccccc54)ncnc32)C[C@@H]1O [MLN4924] + COc1cc2c(Oc3ccc(NC(=O)C4(C(=O)Nc5ccc(F)cc5)CC4)cc3F)ccnc2cc1OCCCN1CCOCC1 [Foretinib] (partner 0.25 µM)
Summary of the method: as §1

[4] = compound: NS(=O)(=O)OC[C@@H]1C[C@@H](n2ccc3c(N[C@H]4CCc5ccccc54)ncnc32)C[C@@H]1O [MLN4924] + Cc1nc(Nc2ncc(C(=O)Nc3c(C)cccc3Cl)s2)cc(N2CCN(CCO)CC2)n1 [Dasatinib] (partner 0.075 µM)
Summary of the method: as §1

| Cell Line | relative viability ([1]; first compound 0.08 µM) | relative viability ([1]; first compound 0.253 µM) | relative viability ([1]; first compound 0.8 µM) | relative viability ([1]; first compound 2.53 µM) | relative viability ([1]; first compound 8 µM) | relative viability ([2]; first compound 0.08 µM) | relative viability ([2]; first compound 0.253 µM) | relative viability ([2]; first compound 0.8 µM) | relative viability ([2]; first compound 2.53 µM) | relative viability ([2]; first compound 8 µM) | relative viability ([3]; first compound 0.04 µM) | relative viability ([3]; first compound 0.1265 µM) | relative viability ([3]; first compound 0.4 µM) | relative viability ([3]; first compound 1.265 µM) | relative viability ([3]; first compound 4 µM) | relative viability ([4]; first compound 0.04 µM) | relative viability ([4]; first compound 0.1265 µM) | relative viability ([4]; first compound 0.4 µM) | relative viability ([4]; first compound 1.265 µM) | relative viability ([4]; first compound 4 µM) |
| --- | --- | --- | --- | --- | --- | --- | --- | --- | --- | --- | --- | --- | --- | --- | --- | --- | --- | --- | --- | --- |
| NCI-H1944 | 0.644 | 0.557 | 0.643 | 0.526 | 0.485 | 0.476 | 0.46 | 0.441 | 0.547 | 0.461 | 0.771 | 0.58 | 0.301 | 0.182 | 0.161 | 0.218 | 0.232 | 0.23 | 0.155 | 0.133 |
| SK-LU-1 | 1.11 | 0.937 | 0.958 | 0.899 | 0.676 | – | – | – | – | – | 0.924 | 0.615 | 0.26 | 0.14 | 0.174 | 0.217 | 0.249 | 0.12 | 0.117 | 0.141 |
| NCI-H1915 | 0.487 | 0.531 | 0.505 | 0.47 | 0.416 | 0.762 | 0.739 | 0.663 | 0.755 | 0.676 | 1.07 | 0.929 | 0.906 | 0.314 | 0.232 | 0.352 | 0.353 | 0.318 | 0.222 | 0.177 |
| NCI-H650 | 0.935 | 0.97 | 0.947 | 1 | 0.903 | 0.946 | 1.11 | 0.964 | 1.01 | 1.16 | 0.863 | 0.499 | 0.341 | 0.197 | 0.191 | 0.407 | 0.418 | 0.236 | 0.215 | 0.193 |
| SW 1573 | 0.92 | 0.924 | 1.18 | 1.01 | 0.569 | – | – | – | – | – | 0.967 | 0.982 | 0.875 | 0.156 | 0.0921 | 0.697 | 0.634 | 0.247 | 0.0507 | 0.0578 |
| NCI-H460 | 0.0702 | 0.0594 | 0.0708 | 0.068 | 0.0641 | 0.616 | 0.5 | 0.594 | 0.538 | 0.546 | 1.01 | 1.09 | 0.855 | 0.297 | 0.0485 | 0.495 | 0.657 | 0.849 | 0.377 | 0.0538 |
| COR-L23 | 0.188 | 0.202 | 0.192 | 0.193 | 0.198 | – | – | – | – | – | 0.985 | 0.844 | 0.644 | 0.299 | 0.141 | 0.487 | 0.617 | 0.507 | 0.154 | 0.101 |
| NCI-H2009 | 1.04 | 0.983 | 1 | 0.958 | 0.654 | – | – | – | – | – | 1.02 | 0.494 | 0.344 | 0.193 | 0.104 | 0.374 | 0.261 | 0.166 | 0.0589 | 0.0792 |
| NCI-H1563 | 0.941 | 0.751 | 0.73 | 0.755 | 0.791 | – | – | – | – | – | 1.16 | 1.21 | 0.744 | 0.535 | 0.55 | 0.67 | 0.819 | 0.714 | 0.446 | 0.426 |
